Among the data in EP0478292A1, “Heterocyclic compounds” (THE WELLCOME FOUNDATION LIMITED, priority 1990, dated 1992) are Ki values, retold here.

Read-outs that look alike come from different tables or passages of the source.

For the test, the target named is T1, Purine nucleoside phosphorylase (PNPase) (Homo sapiens, UniProt P00491).
T1 construct: Purine nucleoside phosphorylase (PNPase) was purified from human erythrocytes; from tissue; host or cells: human erythrocytes
T1 sequence (P00491 1-289): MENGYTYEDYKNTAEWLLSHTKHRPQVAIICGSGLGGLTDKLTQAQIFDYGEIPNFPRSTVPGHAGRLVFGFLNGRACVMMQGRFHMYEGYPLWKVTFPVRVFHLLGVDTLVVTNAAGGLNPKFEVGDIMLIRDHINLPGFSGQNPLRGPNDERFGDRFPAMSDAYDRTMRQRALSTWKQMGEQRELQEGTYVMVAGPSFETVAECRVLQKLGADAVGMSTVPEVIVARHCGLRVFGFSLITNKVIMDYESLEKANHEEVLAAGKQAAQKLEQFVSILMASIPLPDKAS
Nature of the test: Inhibition of purine nucleoside phosphorylase, spectrophotometric assay of inosine phosphorolysis coupled with xanthine oxidase. The class given is biochemical. As to the method:
Enzymology-Purine nucleoside phosphorylase (PNPase) was purified from human erythrocytes by the procedure of Agarwal et al (1). PNPase and xanthine oxidase were desalted before use (2). […] PNPase was assayed spectrophotometrically as previously described (2). In addition to PNPase, the reaction mixtures contained 0.1 mM inosine, 1 mM potassium phosphate, 100 mM Tris=HCl buffer (pH 7.5), 2µM ZnCl₂, and 0.2 U/ml of xanthine oxidase. […] The percent inhibition (%I) of PNP by a single concentration of inhibitor was measured (3).

[1] abbreviates: apparent inhibition constant calculated from percent inhibition at a single inhibitor concentration assuming competitive inhibition, PNPase from human erythrocytes, 0.1 mM inosine, 1 mM potassium phosphate, pH 7.5, 2µM ZnCl₂, read-out: Ki.

As for `Nc1nc(O)c2ncn(CCCCP(=O)(O)CP(=O)(O)O)c2n1` [Compound 2, (((4-(2-amino-1,6-dihydro-6-oxo-9H-purin-9-yl)butyl)phosphinico)methyl)phosphonic acid], the Ki under setting [1] is 0.077 µM.

For `Nc1nc(O)c2ncn(CCCCCCCP(=O)(O)CP(=O)(O)O)c2n1` [Compound 4, (((7-(2-amino-1,6-dihydro-6-oxo-9H-purin-9-yl)heptyl)phosphinico)methyl)phosphonic acid], the Ki under setting [1] was 0.0083 µM.

Consider `CCOP(=O)(O)CP(=O)(O)CCCCCn1cnc2c(O)nc(N)nc21` [Compound 5, ethyl hydrogen (((5-(2-amino-1,6-dihydro-6-oxo-9H-purin-9-yl)pentyl)phosphinico)methyl)phosphonate], for which the Ki worked out at 0.87 µM.

Regarding `Nc1nc2c(ncn2CCCOCP(=O)(O)CP(=O)(O)O)c(=O)[nH]1` [Compound 6, ((((3-(2-amino-1,6-dihydro-6-oxo-9H-purine-9-yl)propoxy)methyl)phosphinico)methyl)phosphonic acid], the Ki under setting [1] was 0.0045 µM.
